# pIC50: −log10 of the molar value. Several values for one entry are separate records, joined by “and”; a condition that tells them apart may be missing. Equal entries are not always repeated.
# System: SW 982 tumor spheroid viability
# Test: Anticancer human tumor SW 982 cell line growth inhibition;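 also: spheroids exposed to compound for 7 days before readout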
# Details: spheroids with HUVEC and MSC; for viability, T/C: stronger effect = lower value
# Excerpt: Multicellular complex tumor spheroid response to DNA repair inhibitors in combination with DNA-damaging drugs
# This study explores the anticancer activities of DNA-damaging drugs and inhibitors of DNA damage repair, both as single agents and in combinations. Complex tumor spheroids comprised of malignant cells, endothelial cells and mesenchymal stem cells served as an in vitro model for human solid tumors. This model system incorporates physiologically relevant features and patient-derived or established malignant cell lines with clinically relevant genetic alterations from many tumor types. Twenty-six patient-derived or established malignant cell lines were evaluated representing sarcoma, melanoma, small cell lung cancer (SCLC), non-small cell lung cancer (NSCLC), as well as bladder, ovarian and pancreatic cancers. The concentration ranges selected for each drug and investigational agent were based upon clinically achievable concentrations if the clinical Cmax of the agent was known.
# Compounds. The drugs and compounds olaparib (NSC753686), talazoparib (NSC767125), berzosertib (NSC777718), elimusertib (NSC800525), nedisertib (NSC802822), VX-984 (NSC792969), AZD-1390 (NSC803789), temozolomide (NSC362856), topotecan (NSC609699), trabectedin (NSC813783), staurosporine (NSC755774), and gemcitabine (NSC613327) were obtained from the National Cancer Institute (NCI) Developmental Therapeutics Program Chemical Repository. The FDA-approved anticancer drug set is available from the Developmental Therapeutics Program at https://dtp.cancer.gov/organization/dscb/obtaining/available_plates.htm. […] The stock solutions were prepared in dimethyl sulfoxide (DMSO, Sigma-Aldrich, St. Louis, MO, cat. D2650) at 400-fold the tested concentration and stored at -70 degrees C. Prior to their use, the stock solutions were diluted in fresh medium and the final DMSO concentration in the assay was 0.25% (v/v). All drugs and investigational agents were tested over a range starting from a high concentration at or near the clinical Cmax and decreasing in half-log increments. If the clinical Cmax for an agent had not been determined, the highest concentration tested was 10 microM.
# Cell Lines. The patient-derived cancer cell (PDC) lines: 156681-154-R-J1-PDC, 283228-195-R-J1-PDC, 287954-098-R-J1-PDC, 292921-168-R-J2-PDC, 349418-098-R-PDC, 425362-245-T-J1-PDC, 556581-035-R-J1-PDC, and BL0293-F563-PDC were received from the NCI Patient-Derived Models Repository (PDMR, https://pdmr.cancer.gov). The established cell lines HS-SY-2 (RRID:CVCL_8719), MPNST, and SYO-1 (RRID:CVCL_7146) were obtained from the Sloan Kettering Institute. The alveolar soft parts sarcoma cell line ASPS-1 (RRID:CVCL_S738) was established at the NCI and grown from internal seed stocks. The following established cell lines were purchased from the American Type Culture Collection (ATCC, Manassas, VA): G-401 (ATCC, cat. CRL-1441, RRID:CVCL_0270), SW982 (ATCC, cat. HTB-93, RRID:CVCL_1734), VA-ES-BJ (ATCC, cat. CRL-2138, RRID:CVCL_1785), NCI-H719 (ATCC, cat. CRL-5837, RRID:CVCL_1582), NCI-H196 (ATCC, cat. CRL-5823, RRID:CVCL_1509), NCI-H841 (ATCC, cat. CRL-5845, RRID:CVCL_1595), NCI-H1618 (ATCC, cat. CRL-5879, RRID:CVCL_1480), NCI-H1876 (ATCC, cat. CRL-5902, RRID:CVCL_1503), DMS 114 (ATCC, cat. CRL-2066; RRID:CVCL_1174), NCI-H211 (ATCC, cat. CRL-5824; RRID:CVCL_1529), and SW 1271 (ATCC, cat. CRL-2177, RRID:CVCL_1716). The small cell lung cancer cell line COR-L88 was purchased from Sigma-Aldrich (cat. 92031917-1VL, RRID:CVCL_1141). The non-small cell lung cancer cell lines NCI-H226 (RRID:CVCL_1544) and NCI-H322M (RRID:CVCL_1557) were established at the NCI and grown from internal seed stocks. Pooled donor human umbilical vein endothelial cells (HUVEC, Lonza, cat. CC-2519) and human mesenchymal stem cells (hMSC, Lonza, cat. PT-2501) were purchased from Lonza (Walkersville, MD).
# Cell Culture. All cells were maintained in an incubator at 37 degrees C and 5% CO2 with 95% humidity. […]
# [1] = compound alone, run of 12/02/2019
# [2] = compound alone, run of 12/12/2019
Structure (SMILES),"viability, T/C (compound 0.0316 µM)","viability, T/C (compound 0.1 µM)","viability, T/C (compound 0.316 µM)","viability, T/C (compound 1 µM)","viability, T/C (compound 3.16 µM)","viability, T/C (compound 10 µM)",pIC50 (curve of compound),"viability, T/C (compound 0.00949 µM)","viability, T/C (compound 0.03 µM)","viability, T/C (compound 0.0949 µM)","viability, T/C (compound 0.3 µM)","viability, T/C (compound 0.949 µM)","viability, T/C (compound 3 µM)",further results
CC(C)n1c(=O)n(C)c2cnc3cc(F)c(-c4ccc(OCCCN5CCCCC5)nc4)cc3c21,99% and 107% and 96.4%,87.8% and 104% and 101%,91.9% and 96% and 90.8%,87% and 91.9% and 71.7%,68.2% and 74.7% and 61.6%,34.8% and 48.2% and 35.8%,5.23 and 5.03 and 5.31,,,,,,,
CC1COCCN1c1cc(-c2ccnn2C)c2ccnc(-c3ccn[nH]3)c2n1 (stereo not given),27.4% and 44.4% and 38.4%,20.4% and 25.4% and 17.1%,16.2% and 17.9% and 12.3%,13.2% and 15.2% and 10.5%,20% and 15.6% and 11%,22.1% and 22.6% and 14.1%,> 7.50,,,,,,,
CC[C@@]1(O)C(=O)OCc2c1cc1n(c2=O)Cc2cc3c(CN(C)C)c(O)ccc3nc2-1,,,,,,,,87.9% [middle of 10 runs],81.2% [middle of 10 runs],70.1% [middle of 10 runs],51.5% [middle of 10 runs],,,"viability, T/C (compound 0.003 µM): 93.7% [middle of 10 runs]; pIC50 [1]: < 6.52 and 6.55; pIC50 [2]: < 6.52 and 6.60 and 6.54"
CNCc1ccc(-c2cc(-c3nc(-c4ccc(S(=O)(=O)C(C)C)cc4)cnc3N)on2)cc1,,,,,,,6.58 and 6.47 and 6.69,94.4% and 97.7% and 104%,94.6% and 94.9% and 100%,78.7% and 84% and 84.3%,43.7% and 49.3% and 31.1%,28% and 32.8% and 19.9%,13.5% and 17.2% and 2.19%,
COc1cc(C)[nH]c(=O)c1CN1CCc2c(Cl)cc(C(OC)C3COC3)c(Cl)c2C1=O (stereo not given),72.5% and 105% and 108%,94.6% and 111% and 95.2%,100% and 109% and 89.6%,108% and 107% and 93.8%,113% and 110% and 96.4%,94.8% and 100% and 98.8%,< 5.00,,,,,,,
COc1cc2c(cc1O)CCNC21CSC2c3c(OC(C)=O)c(C)c4c(c3C(COC1=O)N1C(O)C3Cc5cc(C)c(OC)c(O)c5C(C21)N3C)OCO4 (stereo not given),,,,,,,,,,,,,,"viability, T/C (compound 0.003 µM): 0.57% [middle of 10 runs]; IC50 [2]: 0.667 nM [middle of 10 runs]"
COc1ccc([C@@H](O)c2cc(-c3ncnc4cc(N5CCOCC5)ccc34)c(F)cc2Cl)nn1,88.1% and 102% and 107%,87.4% and 93.8% and 101%,90.2% and 97.4% and 99.4%,89.2% (2×) and 98.7%,90.2% and 85.7% and 95.6%,57.1% and 67% and 70.2%,< 5.00,,,,,,,
Cc1cc(C)c(CNC(=O)c2cc(-c3ccc(CN4CCOCC4)cc3)cc3c2cnn3C2CCCC2)c(=O)[nH]1,111% and 101% and 106%,99.1% and 105% and 100%,97.4% and 99.9% and 105%,102% and 99.6% and 105%,95.3% and 98.8% and 82%,60.5% and 58.6% and 69%,< 5.00,,,,,,,
Cc1sc2c(c1C)C(c1ccc(Cl)cc1)=NC(CC(=O)Nc1ccc(O)cc1)c1nnc(C)n1-2 (stereo not given),,,,,,,6.56 and 6.31 and 6.55,102% (2×) and 124%,105% and 104% and 90.7%,79.4% and 83.4% and 72.8%,48.1% and 59.7% and 50.1%,35.9% and 35.4% and 29.1%,29.3% and 33.5% and 24.2%,
Cn1ncnc1[C@H]1c2n[nH]c(=O)c3cc(F)cc(c23)N[C@@H]1c1ccc(F)cc1,,,,,,,< 5.52,80.9% and 90% and 94.8%,93.7% and 94.9% and 97.7%,88.3% and 90.8% and 91.5%,77.9% and 87.9% and 79.2%,82.8% and 80.2% and 81.8%,75.7% and 82.9% and 62.9%,
Cn1nnc2c(C(N)=O)ncn2c1=O,,,,96.1% [middle of 10 runs],90.9% [middle of 10 runs],79.1% [middle of 10 runs],,,,,,,,"viability, T/C (compound 31.6 µM): 69.1% [middle of 10 runs]; viability, T/C (compound 100 µM): 57.1% [middle of 10 runs]; pIC50 [1]: < 4.00"
O=C(c1cc(Cc2n[nH]c(=O)c3ccccc23)ccc1F)N1CCN(C(=O)C2CC2)CC1,,,,,,,4.61 and 4.80 and 5.03,,,99.7% and 104% and 98.4%,102% and 97.7% and 100%,96.9% and 88.7% and 98.6%,79.8% and 87.7% and 85.5%,"viability, T/C (compound 9.49 µM): 63.3% and 54.4% and 49.8%; viability, T/C (compound 30 µM): 47.1% and 43.4% and 46.1%"
[2H]c1nc(C)nc([2H])c1-c1cc(NC[C@@H](C)c2cccc3c(C(=O)NC)ccnc23)ncn1,80.2% and 102% and 103%,91.6% and 101% and 97.5%,94% and 103% and 107%,96.9% and 96.7% and 114%,103% and 101% and 111%,103% and 94.8% and 108%,< 5.00,,,,,,,

# From PubChem BioAssay AID1845216 (Molecular Pharmacology Branch, DTP, NCI, 2023)
